# In publication PMC9415646, “Improving Aqueous Solubility and In Vitro Pharmacokinetic Properties of the 3-Nitroimidazo[1,2-a]pyridine Antileishmanial Pharmacophore” (Pharmaceuticals, 2022):
# Columns and labels:
# [1] = Redox potential of the nitro group by cyclic voltammetry; type: physicochemical; conditions: cyclic voltammetry in DMSO, corrected versus NHE
# Method: Voltammetric measurements were carried out with a potentiostat Autolab PGSTAT100 (ECO Chemie, Utrecht, The Netherlands) controlled by GPES 4.09 software (ECO Chemie, Utrecht, The Netherlands). Experiments were performed at room temperature in a homemade airtight three–electrode cell connected to a vacuum/argon line. The reference electrode consisted of a saturated calomel electrode (SCE) separated from the solution by a bridge compartment. The counter electrode was a platinum wire of 1 cm^2 apparent surface. The working electrode was a GC microdisk (1.0 mm in diameter–Bio-logic SAS). The supporting electrolyte (nBu4N)[PF6] (Fluka, 99% puriss electrochemical grade) and the solvent DMSO (Sigma-Aldrich puriss p.a. dried <0.02% water) were used as received and simply degassed under argon. The solutions used during electrochemical analyses were typically 10^−3 M in compound and 0.1 M in supporting electrolyte. Before each measurement, the solutions were degassed by bubbling Ar, and the working electrode was polished with a polishing machine (Presi P230, Eybens, France). Under the experimental conditions adopted in this work, the half-wave potential (E1/2) of the ferrocene Fc+/Fc couple in DMSO was E1/2 = 0.45 V vs. SCE. Experimental peak potentials were measured versus SCE and converted to NHE by adding 0.241 V.
# [2] = tested on: L. donovani promastigotes; assay: Antileishmanial activity against L. donovani promastigotes (MTT assay); type: cell-based; conditions: Leishmania donovani; promastigotes, 72 h, MTT; read-out: EC50 L. donovani Pro.
# [3] = Cytotoxicity evaluation on HepG2 cell line (MTT); type: cell-based; conditions: human, HepG2 cells
# [4] = tested on: L. infantum intracellular amastigotes; assay: Antileishmanial activity on L. infantum intracellular (intra-THP1 macrophage) amastigotes; type: cell-based; conditions: Leishmania infantum, THP-1; intramacrophage (THP1) amastigotes, 120 h; read-out: EC50 L. infantum Intra. Ama.
# Method: The undifferentiated THP1 human monocyte cells (acute monocytic leukemia cell line purchased from ATCC, ref TIB-202) were grown in RPMI 1640 medium (Life Technologies, Saint-Aubin, France) supplemented with 10% FCS (Life Technologies, Saint-Aubin, France), 100 U/mL penicillin, 100 µg/mL streptomycin and 2 mM L-glutamine at 37 °C, 5% CO2. The culture was maintained between 3.10^5 and 1.10^6 cells/mL. The in vitro evaluation of the antileishmanial activity on intracellular amastigote forms of the tested compound was assessed as below.
# Briefly, 200 μL of THP-1 cells with Phorbol 12-Myristate 13-Acetate (final concentration 50 ng/mL) were seeded in 96-well plates at an average density of 0.77 × 10^5 cells/mL and incubated for 96 h at 37 °C, 5% CO2. Promastigotes were centrifuged at 3000 rpm for 10 min and the supernatant replaced by the same volume of complete RPMI pH 5.4 and incubated for 24 h at 27 °C. Differentiated THP-1 cells were then infected by acidified promastigotes with an infection ratio of twenty parasites for one macrophage and incubated for 24 h at 37 °C, 5% CO2.
# • Luciferase activity and determination of EC50 were performed as above.
# [5] = Cytotoxicity on THP-1 cell line (MTT); type: cell-based; conditions: human, THP-1 cells, THP1 cell line
# Summary of the method: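 THP-1 cells exposed to compounds for 72 h at 37 °C, then MTT (0.5 mg/mL) for 2 h, absorbance at 570 nm. Viability expressed relative to DMSO-treated cells; CC50 is the mean of three independent experiments.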
Structure (SMILES),E0 (redox potential of the nitro group) [1] [V],melting point [°C],EC50 [2] [µM],CC50 at 72 h [3] [µM],EC50 [4] [µM],CC50 at 72 h [5] [µM]
"COc1ccc(S(=O)(=O)Cc2nc3c(Br)cc(Cl)cn3c2[N+](=O)[O-])cc1 [Compound 2g, 8-Bromo-6-Chloro-2-[(4-Methoxyphenylsulfonyl)methyl]-3-Nitroimidazo[1,2-a]pyridine]",−0.64,226,2.8 ± 0.9,3.9 ± 1.3,2.2 ± 0.1,> 100
"O=[N+]([O-])c1c(CS(=O)(=O)c2ccc(OC(F)(F)F)cc2)nc2c(Br)cc(Cl)cn12 [Compound 2f, 8-Bromo-6-Chloro-3-Nitro-2-[(4-Trifluoromethoxyphenylsulfonyl)methyl]imidazo[1,2-a] pyridine]",−0.62,178,4.4 ± 0.1,> 25,4.2 ± 0.3,> 100
"O=[N+]([O-])c1c(CS(=O)(=O)CCC(F)(F)F)nc2c(Sc3ccc(Cl)cc3)cc(Cl)cn12 [Compound 3i, 6-Chloro-8-[(4-Chlorophenyl)thio]-3-Nitro-2-[(3,3,3-Trifluoropropylsulfonyl)methyl]imidazo[1,2-a]pyridine]",−0.64,183,1.4 ± 0.2,> 6.2,1.2 ± 0.1,> 50
"O=[N+]([O-])c1c(CS(=O)(=O)CCC(F)(F)F)nc2c(-c3ccncc3)cc(Cl)cn12 [Compound 7, 6-Chloro-3-Nitro-8-(Pyridin-4-yl)-2-[(3,3,3-Trifluoropropylsulfonyl)methyl]imidazo[1,2-a]pyridine]",−0.61,184,3.1 ± 0.6,> 100,3.7 ± 0.4,> 100
"O=[N+]([O-])c1c(CS(=O)(=O)C2CC2)nc2c(Sc3ccc(Cl)cc3)cc(Cl)cn12 [Compound 3h, 6-Chloro-8-[(4-Chlorophenyl)thio]-2-[(cyclopropylsulfonyl)methyl]-3-Nitroimidazo[1,2-a]pyridine]",−0.65,196,2.2 ± 0.3,22.3 ± 2.5,3.7 ± 0.2,> 62.5
